US20260263433A1, “TETRAZOLIUM AND FORMAZAN COMPOUNDS AND METHODS OF MAKING AND USING THE SAME” (ARIZONA BOARD OF REGENTS ON BEHALF OF THE UNIVERSITY OF …, priority 2022, published 2026)

Columns and labels:
[1] = test system: Caco-2 (Colon); assay: Antiproliferative activity, resazurin readout, Caco-2; type: cell-based, human; conditions: 72 h incubation, 0.032-100 μM, mean ± SDM, n = 3
Experimental: (§1) Once the stability data and the information on the reduction and iron binding of the new cohort of tetrazolium salts had been obtained, the antiproliferative activity of the new cohort was assessed in a panel of mammalian cell lines. Cancer cells require more iron than normal cells in order to sustain fast proliferation rate. Therefore, compounds that interfere with intracellular iron availability display antiproliferative activity.^12 Indeed iron chelation and prochelation strategies could provide new therapeutic avenues in anticancer drug discovery.^4
(§2) Cancer cell lines of different origin were selected (ovarian A2780, breast MDAMB-231, colon Caco-2, and lung A549), and a normal cell line (MRC-5, lung fibroblasts) was selected as a comparison.
(§3) Because the colorimetric MTT reagent is one of the compounds being tested in this panel, the reduction of resazurin to brightly fluorescent resorufin was chosen as a readout for the assessment of antiproliferative activity.

[2] = Stability in fetal bovine serum monitored by HPLC; type: in vitro ADME; conditions: 24 h
Experimental: FIGS. 5A and 5B depict the assessment of stability of the tetrazolium-based prochelators in fetal bovine serum (FBS) for a period of 24 h.
The stability of exemplary tetrazolium compounds was tested in fetal bovine serum and monitored by HPLC analysis.

[3] = test system: A2780 (Ovary); assay: Antiproliferative activity, resazurin readout, A2780; type: cell-based, human; conditions: for IC50: 72 h incubation, 0.032-100 μM, mean ± SDM, n = 3
Experimental: as §1, §2, §3

[4] = test system: panel of mammalian cell lines; assay: Antiproliferative activity across the panel of cell lines; type: cell-based, human; conditions: 72 h, tested cell lines
Experimental: as §1, §2, §3

[5] = test system: MDA-MB-231 (Breast); assay: Antiproliferative activity, resazurin readout, MDA-MB-231; type: cell-based, human; conditions: 72 h incubation, 0.032-100 μM, mean ± SDM, n = 3
Experimental: as §1, §2, §3

[6] = Reduction of tetrazolium salts by cyclic voltammetry in buffered aqueous solution; type: physicochemical; conditions: 50 mM PBS pH 7.4, 25° C., K3[Fe(CN)6] reference, irreversible reduction
Experimental: The reduction of all the tetrazolium salts was investigated by cyclic voltammetry in buffered aqueous solutions (50 mM phosphate buffered saline solution, pH 7.4, K3[Fe(CN)6] as reference E0=0.430 V vs. NHE, 25° C.). Each compound presents an irreversible reduction at a potential that varies considerably depending on the identity of the aryl substituents on the tetrazolium core. Although the peaks are rather broad and likely susceptible to shifts depending on the specific experimental conditions, the peak potentials (Table 1, referenced to NHE) of some of these tetrazolium compounds indicate that they are reduced outside the biologically relevant window. […] On the other hand, the fact that the tetrazolium compounds are harder to reduce relative to MTT (with the exception of the benzothiazole derivative 1b) makes them well suited for intracellular activation in the reducing microenvironment of malignant cells. Compounds 2b, 4b, 6b and 7b are likely to be reduced intracellularly to the formazan species.

[7] = test system: MRC-5 (Normal lung); assay: Antiproliferative activity, resazurin readout, MRC-5 normal lung fibroblasts; type: cell-based, human; conditions: 72 h incubation, 0.032-100 μM, mean ± SDM, n = 3
Experimental: as §1, §2, §3

[8] = test system: A549 (Lung); assay: Antiproliferative activity, resazurin readout, A549; type: cell-based, human; conditions: 72 h incubation, 0.032-100 μM, mean ± SDM, n = 3
Experimental: as §1, §2, §3

[9] = test system: A2780 ovarian cancer cells; assay: Effect of iron supplementation on toxicity, LIVE/DEAD stain, flow cytometry; type: cell-based, human; conditions: compounds 40 μM with or without ferric ammonium citrate 50 μM or holo-transferrin 50 μM, 48 h
Experimental: FIGS. 6A-6B depict the effects of iron supplementation on toxicity in A2780 ovarian cancer cells. The percentage of dead cells was determined using the LIVE/DEAD fixable stain as measured by flow cytometry. FIG. 6A depicts the quantification of dead cells after treating in the presence of test compounds (40 μM) with or without ferric ammonium citrate (FAC, 50 μM) for 48 h. FIG. 6B depicts the quantification of dead cells after treating in the presence of test compounds (40 μM) with or without holo-transferrin (holo-TF, 50 μM) for 48 h. Experiments were conducted in triplicate and the values shown are averages ±standard deviation. **p<0.01, ***p<0.001, ****p<0.0001.
The biological activity of the tetrazolium and formazan compounds was investigated in A2780 cells, in which they presented the highest antiproliferative activity. In particular, experiments were performed to confirm that the antiproliferative activity of these compounds is associated with the availability of intracellular iron.

[10] = Fe(II) coordination in buffered aqueous solution (optical absorption changes); type: physicochemical; conditions: absorption 500-800 nm
Experimental: These two compounds were retained in the experiments as controls.
The tetrazolium salts (FIGS. 4A-4B) were synthesized from the formazans by the process outlined in FIG. 4C, which included oxidation with N-bromo-succinimide. For structures featuring a 2-hydroxyphenyl group, the oxidation was carried out on methoxyphenyl precursors and followed by a demethylation step in the presence of BBr3. The tetrazolium compounds were isolated as bromide salts.

Row | SMILES | IC50 [3] [µM] | IC50 [5] [µM] | IC50 [1] [µM] | Antiproliferative activity / toxicity in the cell panel, in words [4] | Ered vs. NHE (peak potential Ep) [6] [mV] | IC50 [7] [µM] | IC50 [8] [µM] | further results
1 | [Br-].c1ccc(-c2nn(-c3nc4ccccc4s3)[n+](-c3ccccc3)n2)cc1 [1b] | 23 ± 3 | 21 ± 2 | 40 ± 3 | moderate antiproliferative activities | 207 | 97 ± 10 | 41 ± 3 | Stability in serum [2]: significant degradation
2 | [Br-].c1ccc(-c2nn(-c3ccccn3)[n+](-c3ccccc3)n2)cc1 [2b] | 16 ± 3 | 16 ± 2 | 13 ± 2 | promising antiproliferative activities | −130 | > 100 | 17 ± 2 | Effect of iron supplementation on cell death [9]: could be rescued by iron supplementation
3 | Oc1ccccc1-n1nc(-c2ccccc2)n[n+]1-c1ccccc1.[Br-] [3b] | > 100 | > 100 | > 100 | low cytotoxicity | −328 | > 100 | > 100 | –
4 | Oc1ccccc1-c1nn(-c2ccccn2)[n+](-c2ccccc2)n1.[Br-] [4b] | 12 ± 3 | 17 ± 2 | 29 ± 3 | promising antiproliferative activities | −102 | > 100 | 28 ± 4 | Effect of iron supplementation on cell death [9]: could be rescued by iron supplementation
5 | c1ccc(N=NC(=NNc2ccccc2)c2ccccn2)cc1 [6a] | – | – | – | – | – | – | – | Iron binding [10]: did not show any indication of iron binding
6 | [Br-].c1ccc(-n2nc(-c3ccccn3)n[n+]2-c2ccccc2)cc1 [6b] | 74 ± 4 | > 100 | > 100 | low toxicity | −241 | > 100 | > 100 | Effect of iron supplementation on cell death [9]: not altered by iron supplementation
7 | Oc1ccccc1C(N=Nc1ccccc1)=NNc1ccccc1 [7a] | – | – | – | – | – | – | – | Iron binding [10]: did not show any indication of iron binding
8 | O=C(O)c1ccc(-n2nc(-c3ccccc3O)nc2-c2ccccc2O)cc1 [DFX, deferasirox, reference compound] | – | – | – | – | – | – | – | IC50 ([1]; Homo sapiens, Caco-2): 67 ± 2 µM; IC50 ([3]; Homo sapiens, A2780): 15 ± 0.5 µM; IC50 ([5]; Homo sapiens, MDA-MB-231): 17 ± 1 µM; IC50 ([7]; Homo sapiens, MRC5): > 100 µM; IC50 ([8]; Homo sapiens, A549): 21 ± 3 µM
9 | c1ccc(NN=C(N=Nc2nccc3ccccc23)c2ccccc2)cc1 [IQF] | 0.7 ± 0.1 | 1.4 ± 0.5 | – | sub-micromolar or low-micromolar | – | – | – | –
10 | [Br-].c1ccc(-c2nn(-c3nccc4ccccc34)[n+](-c3ccccc3)n2)cc1 [IQT] | 0.5 ± 0.1 | – | – | – | – | 14 ± 2 | – | IC50 values in A2780 cell lines, in words [3]: sub-micromolar
11 | Cc1nc(N=NC(=NNc2ccccc2)c2ccccc2)sc1C [MTF, reference compound] | – | – | – | – | – | – | – | Iron binding [10]: coordinate Fe(II)
12 | Cc1nc(-[n+]2nc(-c3ccccc3)nn2-c2ccccc2)sc1C.[Br-] [MTT, reference compound] | 45 ± 9 | 48 ± 7 | 92 ± 7 | moderate antiproliferative activities | 94 | 32 ± 5 | 44 ± 9 | Stability in serum [2]: significant degradation
13 | c1ccc(NN=C(N=Nc2ccc3ccccc3n2)c2ccccc2)cc1 [QF] | 14 ± 2 | 7 ± 2 | – | sub-micromolar or low-micromolar | – | 89 ± 9 | – | –
14 | [Br-].c1ccc(-c2nn(-c3ccc4ccccc4n3)[n+](-c3ccccc3)n2)cc1 [QT] | 0.8 ± 0.1 | 0.3 ± 0.1 | – | – | – | 3.5 ± 0.8 | – | IC50 values in A2780 cell lines, in words [3]: sub-micromolar
15 | c1ccc(NN=C(N=Nc2cnc3ccccc3n2)c2ccccc2)cc1 [QXF] | 9 ± 2 | 22 ± 3 | – | sub-micromolar or low-micromolar | – | 11 ± 2 | – | –
16 | c1ccc(-c2nn(-c3cnc4ccccc4n3)[n+](-c3ccccc3)n2)cc1 [QXT] | 19 ± 2 | 26 ± 3 | – | – | – | 45 ± 8 | – | –
17 | c1ccc(NN=C(N=Nc2ncc3ccccc3n2)c2ccccc2)cc1 [QZF] | 0.6 ± 0.1 | 1.8 ± 0.5 | – | sub-micromolar or low-micromolar | – | 4.2 ± 0.3 | – | –

Further lines, with some results ahead:

Row | IC50 [3] [µM] | IC50 [5] [µM] | SMILES | IC50 [1] [µM] | Antiproliferative activity / toxicity in the cell panel, in words [4] | Ered vs. NHE (peak potential Ep) [6] [mV] | IC50 [7] [µM] | IC50 [8] [µM] | further results
18 | 90 ± 10 | > 100 | Oc1ccccc1-n1nc(-c2ccccn2)n[n+]1-c1ccccc1.[Br-] [5b] | > 100 | low cytotoxicity | −380 | > 100 | > 100 | –
19 | 74 ± 7 | > 100 | Oc1ccccc1-c1nn(-c2ccccc2)[n+](-c2ccccc2)n1.[Br-] [7b] | > 100 | low toxicity | −187 | > 100 | > 100 | –
